Reference: ChEMBL document CHEMBL1759974, “Discovery of triazine-benzimidazoles as selective inhibitors of mTOR” (Bioorg Med Chem Lett, 2011)
In brackets after ≈: the same amount, converted by molar mass. Activity calls are given as the source filed them. The calls are words filed in the database; no cut-off is given here.

Legend:
[1] = Volume of distribution at steady state in Sprague-Dawley rat at 1 mg/kg, iv and 2 mg/kg, po; format: ADME, organism-based; details: in vivo, read-out: Vdss
[2] = molecular target: Phosphatidylinositol 4,5-bisphosphate 3-kinase catalytic subunit gamma isoform (Homo sapiens, UniProt P48736)
[3] = molecular target: T1, Serine/threonine-protein kinase mTOR (Homo sapiens, UniProt P42345)
Rattus norvegicus [4] = experiment: AUC in Sprague-Dawley rat at 1 mg/kg, iv; format: ADME, organism-based, Plasma; parameters: dose 1 mg/kg, route intravenous; details: in vivo
[5] = molecular target: T1, Serine/threonine-protein kinase mTOR; remark: listed apart in the source
Description: Inhibition of mTOR in human U-87 cells assessed as inhibition of phosphorylation of AKT at S473

[6] = molecular target: T2, Phosphatidylinositol 4,5-bisphosphate 3-kinase catalytic subunit delta isoform (Homo sapiens, UniProt O00329)
T2 sequence (O00329 whole entry): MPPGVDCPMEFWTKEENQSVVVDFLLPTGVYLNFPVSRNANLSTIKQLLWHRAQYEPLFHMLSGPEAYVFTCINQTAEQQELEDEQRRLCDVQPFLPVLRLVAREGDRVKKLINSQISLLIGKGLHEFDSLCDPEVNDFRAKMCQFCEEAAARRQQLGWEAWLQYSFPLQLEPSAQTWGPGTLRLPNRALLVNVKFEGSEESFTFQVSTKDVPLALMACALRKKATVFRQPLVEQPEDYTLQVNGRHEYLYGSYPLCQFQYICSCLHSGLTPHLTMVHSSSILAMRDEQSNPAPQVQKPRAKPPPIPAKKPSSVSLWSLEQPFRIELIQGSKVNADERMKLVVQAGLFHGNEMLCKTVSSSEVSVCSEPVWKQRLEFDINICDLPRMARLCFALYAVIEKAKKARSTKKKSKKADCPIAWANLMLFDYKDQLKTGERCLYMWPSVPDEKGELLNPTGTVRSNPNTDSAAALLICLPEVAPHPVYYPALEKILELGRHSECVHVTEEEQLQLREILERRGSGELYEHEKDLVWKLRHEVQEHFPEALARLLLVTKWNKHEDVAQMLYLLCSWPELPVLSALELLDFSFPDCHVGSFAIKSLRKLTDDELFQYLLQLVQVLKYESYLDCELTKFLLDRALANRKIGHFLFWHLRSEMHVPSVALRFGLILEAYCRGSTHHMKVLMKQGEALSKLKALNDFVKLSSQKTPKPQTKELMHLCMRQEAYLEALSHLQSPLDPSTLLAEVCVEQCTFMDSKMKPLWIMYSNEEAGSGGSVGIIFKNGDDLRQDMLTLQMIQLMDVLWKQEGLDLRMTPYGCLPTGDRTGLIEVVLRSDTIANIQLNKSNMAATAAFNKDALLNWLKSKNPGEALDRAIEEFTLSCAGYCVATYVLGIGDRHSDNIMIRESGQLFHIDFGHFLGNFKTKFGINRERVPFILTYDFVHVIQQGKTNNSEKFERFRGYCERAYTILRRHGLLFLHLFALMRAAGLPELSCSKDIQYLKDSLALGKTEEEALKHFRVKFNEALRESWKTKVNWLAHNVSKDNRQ

[7] = molecular target: Serine/threonine-protein kinase mTOR (Rattus norvegicus) (UniProt P42346); experiment: Inhibition of HGF induced mTOR activation in rat liver assessed as inhibition of S6RP phosphorylation at 100 mg/kg, ip 6 hrs prior to HGF stimulation by MSD analysis; format: organism-based; parameters: dose 100 mg/kg
[8] = Solubility of compound in 0.01 N HCL; format: physicochemical
Rattus norvegicus [9] = experiment: AUC in rat at 2 mg/kg, po; format: ADME, organism-based, Plasma; parameters: dose 2 mg/kg, route oral; details: in vivo
[10] = Half life in Sprague-Dawley rat at 1 mg/kg, iv; format: ADME, organism-based; parameters: dose 1 mg/kg, route intravenous; details: in vivo
[11] = molecular target: T1, Serine/threonine-protein kinase mTOR; remark: listed apart in the source
[12] = molecular target: Phosphatidylinositol 4,5-bisphosphate 3-kinase catalytic subunit alpha isoform (Homo sapiens, UniProt P42336)
[13] = AUC in rat at 50 mg/kg, po; format: ADME, organism-based; parameters: dose 50 mg/kg, route oral; details: plasma
[14] = molecular target: Serine/threonine-protein kinase mTOR (Rattus norvegicus) (UniProt P42346); experiment: Inhibition of HGF induced mTOR activation in rat liver assessed as inhibition of AKT phosphorylation at S473 at 100 mg/kg, ip 6 hrs prior to HGF stimulation by MSD analysis; format: organism-based; parameters: dose 100 mg/kg
[15] = Plasma protein binding in Sprague-Dawley rat at 1 mg/kg, iv and 2 mg/kg, po; format: ADME, organism-based; details: read-out: PPB (converted)
Rattus norvegicus [16] = experiment: Inhibition of HGF induced mTOR activation in ip dosed rat liver assessed as inhibition of AKT phosphorylation at S473 administered 6 hrs prior to HGF stimulation by MSD analysis; format: functional, organism-based
[17] = molecular target: Serine/threonine-protein kinase mTOR (Rattus norvegicus) (UniProt P42346); experiment: Inhibition of HGF induced mTOR activation in rat liver assessed as inhibition of AKT phosphorylation at S473 at 30 mg/kg, ip 6 hrs prior to HGF stimulation by MSD analysis; format: organism-based; parameters: dose 30 mg/kg; scale not given: the % may be the effect or the level left
[18] = Oral bioavailability in Sprague-Dawley rat at 2 mg/kg; format: ADME, organism-based; details: in vivo
[19] = molecular target: Phosphatidylinositol 4,5-bisphosphate 3-kinase catalytic subunit beta isoform (Homo sapiens, UniProt P42338)
[20] = Clearance in Sprague-Dawley rat at 1 mg/kg, iv and 2 mg/kg, po; format: ADME, organism-based; details: in vivo
[21] = molecular target: TGF-beta receptor type-2 (Homo sapiens) (UniProt P37173); experiment: Inhibition of TGFBR2 assessed as inhibition of TGFbeta induced SMAD phosphorylation at 10 uM relative to control
A-375 = experiment: Antiproliferative activity against human A375 cells harboring BRAF gene mutation/amplification at 1 uM after 72 hrs by Ambit assay in presence of 10% serum; format: functional, cell-based; details: A-375, 72 h
MCF7 = experiment: Antiproliferative activity against human MCF7 harboring PI3K gene mutation/amplification at 1 uM after 72 hrs by Ambit assay in presence of 10% serum; format: functional, cell-based; details: MCF7, 72 h
Calu-6 = experiment: Antiproliferative activity against human Calu6 harboring KRAS gene mutation/amplification at 1 uM after 72 hrs by Ambit assay in presence of 10% serum; format: functional, cell-based; details: Calu-6, 72 h
UACC-893 = experiment: Antiproliferative activity against human UACC-893 cells harboring HER2/PI3K/p53 mutant gene at 1 uM after 72 hrs by Ambit assay in presence of 10% serum; format: functional, cell-based; details: UACC-893, 72 h
NCI-H2009 = experiment: Antiproliferative activity against human NCI-H2009 harboring KRAS/RB/p53 gene mutation/amplification at 1 uM after 72 hrs by Ambit assay in presence of 10% serum; format: functional, cell-based; details: NCI-H2009, 72 h
MDA-MB-468 = experiment: Antiproliferative activity against human MDA-MB-468 harboring PTEN/EGFR/p53 gene mutation/amplification at 1 uM after 72 hrs by Ambit assay in presence of 10% serum; format: functional, cell-based; details: MDA-MB-468, 72 h
[22] = Antiproliferative activity against human U87MG harboring PTEN gene mutation/amplification at 1 uM after 72 hrs by Ambit assay in presence of 10% serum; format: functional, U-87MG ATCC; details: U-87 MG
A549 = experiment: Antiproliferative activity against human A549 cells harboring KRAS/LKB1 gene mutation/amplification at 1 uM after 72 hrs by Ambit assay in presence of 10% serum; format: functional, cell-based; details: A549, 72 h
NCI-H82 = experiment: Antiproliferative activity against human NCI-H82 harboring CMYC/RB gene mutation/amplification at 1 uM after 72 hrs by Ambit assay in presence of 10% serum; format: functional, cell-based; details: NCI-H82, 72 h
CAL-51 = experiment: Antiproliferative activity against human CAL51 harboring PI3K/PTEN gene mutation/amplification at 1 uM after 72 hrs by Ambit assay in presence of 10% serum; format: functional, cell-based; details: CAL-51, 72 h
HCC1954 = experiment: Antiproliferative activity against human HCC1954 harboring PI3K/p53 gene mutation/amplification at 1 uM after 72 hrs by Ambit assay in presence of 10% serum; format: functional, cell-based; details: HCC1954, 72 h
NCI-H1975 = experiment: Antiproliferative activity against human NCI-H1975 harboring PI3K/EGFR/p53 gene mutation/amplification at 1 uM after 72 hrs by Ambit assay in presence of 10% serum; format: functional, cell-based; details: NCI-H1975, 72 h
[23] = molecular target: TGF-beta receptor type-2 (Homo sapiens) (UniProt P37173); experiment: Inhibition of TGFBR2 assessed as inhibition of TGFbeta induced SMAD phosphorylation at 1 uM relative to control
DU-4475 = experiment: Antiproliferative activity against human DU4475 harboring BRAF/APC/RB gene mutation/amplification at 1 uM after 72 hrs by Ambit assay in presence of 10% serum; format: functional, cell-based; details: DU-4475, 72 h
COLO-829 = experiment: Antiproliferative activity against human COLO829 harboring BRAF/PTEN gene mutation/amplification at 1 uM after 72 hrs by Ambit assay in presence of 10% serum; format: functional, cell-based; details: COLO-829, 72 h
BT-474 = experiment: Antiproliferative activity against human BT474 cells harboring HER2/PI3K/p53 mutant gene at 1 uM after 72 hrs by Ambit assay in presence of 10% serum; format: functional, cell-based; details: BT-474, 72 h
SK-MEL-28 = experiment: Antiproliferative activity against human SK-MEL-28 harboring BRAF gene mutation/amplification at 1 uM after 72 hrs by Ambit assay in presence of 10% serum; format: functional, cell-based; details: SK-MEL-28, 72 h
NCI-H460 = experiment: Antiproliferative activity against human NCI-H460 harboring PI3K/KRAS/LKB1 gene mutation/amplification at 1 uM after 72 hrs by Ambit assay in presence of 10% serum; format: functional, cell-based; details: NCI-H460, 72 h
MDA-MB-231 = experiment: Antiproliferative activity against human MDA-MB-231 harboring KRAS/BRAF/p53 gene mutation/amplification at 1 uM after 72 hrs by Ambit assay in presence of 10% serum; format: functional, cell-based; details: MDA-MB-231, 72 h
[24] = Intrinsic clearance in rat liver microsomes; format: ADME, Microsome
Rattus norvegicus [25] = experiment: In vivo clearance in bile-duct cannulated rat assessed as multiple glucuronidation metabolites in bile by LC/MS analysis; format: ADME, organism-based
Liver = experiment: Intrinsic clearance in rat liver hepatocytes; format: ADME, cell-based, Hepatocyte
[26] = Intrinsic clearance in human liver microsomes; format: ADME, Microsome

Phosphatidylinositol 4,5-bisphosphate 3-kinase catalytic subunit beta isoform, sequence (P42338 whole entry, canonical isoform): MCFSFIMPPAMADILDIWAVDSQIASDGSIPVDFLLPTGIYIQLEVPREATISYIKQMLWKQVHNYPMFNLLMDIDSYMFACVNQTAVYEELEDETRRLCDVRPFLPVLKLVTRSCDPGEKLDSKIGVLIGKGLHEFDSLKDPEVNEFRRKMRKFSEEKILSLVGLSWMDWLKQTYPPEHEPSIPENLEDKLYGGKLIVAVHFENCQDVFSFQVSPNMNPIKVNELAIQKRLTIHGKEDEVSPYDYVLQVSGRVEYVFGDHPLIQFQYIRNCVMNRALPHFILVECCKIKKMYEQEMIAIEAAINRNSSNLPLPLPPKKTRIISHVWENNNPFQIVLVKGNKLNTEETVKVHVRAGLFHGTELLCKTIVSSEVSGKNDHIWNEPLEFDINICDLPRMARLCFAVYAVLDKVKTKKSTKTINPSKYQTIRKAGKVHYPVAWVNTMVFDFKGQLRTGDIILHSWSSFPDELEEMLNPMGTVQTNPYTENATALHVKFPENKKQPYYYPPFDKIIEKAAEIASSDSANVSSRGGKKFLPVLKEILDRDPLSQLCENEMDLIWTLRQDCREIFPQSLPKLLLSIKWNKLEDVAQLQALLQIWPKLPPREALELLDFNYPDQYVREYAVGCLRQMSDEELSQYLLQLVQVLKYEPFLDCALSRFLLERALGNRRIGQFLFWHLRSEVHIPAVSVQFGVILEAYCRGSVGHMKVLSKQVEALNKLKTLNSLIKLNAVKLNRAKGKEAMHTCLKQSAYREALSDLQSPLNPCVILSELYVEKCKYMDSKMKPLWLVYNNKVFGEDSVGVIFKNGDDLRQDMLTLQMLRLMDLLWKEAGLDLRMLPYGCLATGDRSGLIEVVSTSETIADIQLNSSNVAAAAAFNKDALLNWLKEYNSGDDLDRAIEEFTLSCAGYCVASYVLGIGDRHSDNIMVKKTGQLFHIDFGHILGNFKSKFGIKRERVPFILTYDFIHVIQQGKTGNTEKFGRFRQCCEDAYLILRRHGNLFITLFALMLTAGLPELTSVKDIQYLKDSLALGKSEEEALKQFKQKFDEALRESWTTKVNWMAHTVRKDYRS
TGF-beta receptor type-2 (Homo sapiens), sequence (P37173 whole entry): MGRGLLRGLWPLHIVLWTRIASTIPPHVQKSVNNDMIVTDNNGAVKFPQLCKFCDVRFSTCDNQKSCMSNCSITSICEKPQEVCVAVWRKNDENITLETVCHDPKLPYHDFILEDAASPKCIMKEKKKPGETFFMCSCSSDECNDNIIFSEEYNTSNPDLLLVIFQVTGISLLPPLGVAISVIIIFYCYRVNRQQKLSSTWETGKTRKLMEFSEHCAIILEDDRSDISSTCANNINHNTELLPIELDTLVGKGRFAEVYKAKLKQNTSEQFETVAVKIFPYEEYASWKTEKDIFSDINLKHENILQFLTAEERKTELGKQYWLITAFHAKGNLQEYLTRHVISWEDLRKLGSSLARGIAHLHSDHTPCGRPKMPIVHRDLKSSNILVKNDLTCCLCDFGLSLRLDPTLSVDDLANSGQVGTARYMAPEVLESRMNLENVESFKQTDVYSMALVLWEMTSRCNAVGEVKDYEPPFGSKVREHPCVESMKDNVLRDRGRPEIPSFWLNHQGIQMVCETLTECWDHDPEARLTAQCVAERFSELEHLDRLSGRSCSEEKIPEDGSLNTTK
Phosphatidylinositol 4,5-bisphosphate 3-kinase catalytic subunit alpha isoform, sequence (P42336 whole entry, canonical isoform): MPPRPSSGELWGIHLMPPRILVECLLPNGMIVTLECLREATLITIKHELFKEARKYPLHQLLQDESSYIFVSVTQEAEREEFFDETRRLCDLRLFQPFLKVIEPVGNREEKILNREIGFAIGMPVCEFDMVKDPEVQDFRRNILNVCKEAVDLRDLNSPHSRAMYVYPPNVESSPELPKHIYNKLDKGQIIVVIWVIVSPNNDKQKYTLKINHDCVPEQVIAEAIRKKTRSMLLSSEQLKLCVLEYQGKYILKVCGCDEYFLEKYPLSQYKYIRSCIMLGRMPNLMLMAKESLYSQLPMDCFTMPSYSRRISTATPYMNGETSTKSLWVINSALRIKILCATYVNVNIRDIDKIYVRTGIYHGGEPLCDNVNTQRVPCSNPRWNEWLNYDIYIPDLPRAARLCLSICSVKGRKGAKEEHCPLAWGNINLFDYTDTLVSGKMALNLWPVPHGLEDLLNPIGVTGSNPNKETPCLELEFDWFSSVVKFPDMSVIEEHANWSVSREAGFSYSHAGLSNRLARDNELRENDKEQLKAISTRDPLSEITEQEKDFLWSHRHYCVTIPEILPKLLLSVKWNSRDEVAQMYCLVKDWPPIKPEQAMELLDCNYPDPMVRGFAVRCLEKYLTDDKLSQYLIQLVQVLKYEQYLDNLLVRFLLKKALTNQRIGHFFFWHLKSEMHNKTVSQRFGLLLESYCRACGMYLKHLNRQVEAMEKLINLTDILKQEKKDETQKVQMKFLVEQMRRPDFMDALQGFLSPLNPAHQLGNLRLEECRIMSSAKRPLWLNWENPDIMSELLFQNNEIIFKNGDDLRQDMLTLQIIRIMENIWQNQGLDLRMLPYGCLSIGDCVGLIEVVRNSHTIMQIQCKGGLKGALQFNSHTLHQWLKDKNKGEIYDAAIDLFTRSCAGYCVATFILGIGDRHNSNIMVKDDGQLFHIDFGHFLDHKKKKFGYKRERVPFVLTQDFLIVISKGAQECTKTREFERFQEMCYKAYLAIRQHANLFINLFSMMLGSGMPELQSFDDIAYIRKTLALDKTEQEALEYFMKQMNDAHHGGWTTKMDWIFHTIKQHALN
Phosphatidylinositol 4,5-bisphosphate 3-kinase catalytic subunit gamma isoform, sequence (P48736 whole entry, canonical isoform): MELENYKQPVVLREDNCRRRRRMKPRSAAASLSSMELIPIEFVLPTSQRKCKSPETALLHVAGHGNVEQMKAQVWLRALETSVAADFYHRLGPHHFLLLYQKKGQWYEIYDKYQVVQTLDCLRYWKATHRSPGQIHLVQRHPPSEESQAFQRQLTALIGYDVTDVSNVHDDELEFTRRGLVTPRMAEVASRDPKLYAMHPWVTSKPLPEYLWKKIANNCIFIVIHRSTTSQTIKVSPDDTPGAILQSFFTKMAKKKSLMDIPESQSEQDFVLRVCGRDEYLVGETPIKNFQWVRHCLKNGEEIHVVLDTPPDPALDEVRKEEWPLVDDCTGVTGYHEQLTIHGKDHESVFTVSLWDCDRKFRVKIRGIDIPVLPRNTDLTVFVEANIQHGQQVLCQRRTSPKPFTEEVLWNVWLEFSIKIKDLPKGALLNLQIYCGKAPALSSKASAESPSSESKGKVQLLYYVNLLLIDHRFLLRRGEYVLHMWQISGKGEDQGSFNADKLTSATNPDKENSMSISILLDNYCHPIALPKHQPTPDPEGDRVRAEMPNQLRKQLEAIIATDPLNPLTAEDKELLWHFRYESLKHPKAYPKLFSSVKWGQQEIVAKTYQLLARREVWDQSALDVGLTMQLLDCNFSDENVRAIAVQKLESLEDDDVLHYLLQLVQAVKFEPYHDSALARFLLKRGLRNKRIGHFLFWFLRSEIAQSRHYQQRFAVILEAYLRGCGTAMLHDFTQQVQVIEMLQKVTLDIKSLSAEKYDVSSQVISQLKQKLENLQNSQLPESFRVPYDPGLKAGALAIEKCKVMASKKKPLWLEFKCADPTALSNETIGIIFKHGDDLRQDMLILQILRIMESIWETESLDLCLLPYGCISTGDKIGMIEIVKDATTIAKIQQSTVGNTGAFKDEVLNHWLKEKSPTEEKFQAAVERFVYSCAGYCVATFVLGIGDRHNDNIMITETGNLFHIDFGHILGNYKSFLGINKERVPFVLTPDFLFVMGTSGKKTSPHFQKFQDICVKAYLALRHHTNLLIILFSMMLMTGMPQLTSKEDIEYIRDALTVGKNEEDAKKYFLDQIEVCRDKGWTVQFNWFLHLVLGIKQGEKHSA

## CNc1nc(C)nc(-n2c(Nc3cc[nH]n3)nc3ccccc32)n1
[1]
  Vd: 0.76 L/kg
[2]
  IC50: 3.2 µM
[3]
  IC50: 0.6 µM
Rattus norvegicus [4]
  AUC: 3600 nM
[5]
  IC50: 0.1 µM
[6]
  IC50: 0.89 µM
[7]
  inhibition: 78%
[8]; 0.01 N HCl, read-out: solubility
  solubility: 156 µg/mL (≈ 485 µM)
Rattus norvegicus [9]
  AUC: 1490 nM
[10]
  half-life: 33.6 min
[11]
  IC50: 0.081 µM
[12]
  IC50: 2.2 µM
[13]
  AUC: 2.03 µM·h
[14]
  inhibition: 83%
[15]
  fraction unbound: 0.008
Rattus norvegicus [16]
  inhibition: Dose-dependent effect
[17]
  Activity: 71%
[18]
  bioavailability: 20.7%
[19]
  IC50: 4.5 µM
[20]
  clearance: 15.5 mL/min/kg

## Cc1nc(NCC#N)nc(-n2c(Nc3cc[nH]n3)nc3ccccc32)n1
[21]
  inhibition: inactive
A-375
  IC50: 0.38 µM
MCF7
  IC50: 0.54 µM
Calu-6
  IC50: 0.59 µM
UACC-893
  IC50: 0.14 µM
NCI-H2009
  IC50: 0.42 µM
MDA-MB-468
  IC50: 0.69 µM
[22]
  IC50: 0.35 µM
A549
  IC50: 0.43 µM
NCI-H82
  IC50: 0.43 µM
CAL-51
  IC50: 0.32 µM
HCC1954
  IC50: 0.22 µM
NCI-H1975
  IC50: 0.6 µM
[23]
  inhibition: 17%
DU-4475
  IC50: 0.53 µM
COLO-829
  IC50: 0.34 µM
BT-474
  IC50: 0.2 µM
SK-MEL-28
  IC50: 0.47 µM
NCI-H460
  IC50: 0.46 µM
MDA-MB-231
  IC50: 0.27 µM

## Cc1nc(N)nc(-n2c(Nc3ccn[nH]3)nc3ccccc32)n1
[1]
  Vd: 1.1 L/kg
[3]
  IC50: 0.39 µM
Rattus norvegicus [4]
  AUC: 1680 nM
[5]
  IC50: 0.055 µM
[6]
  IC50: 0.51 µM
[8]; buffer
  solubility: 37 µg/mL (≈ 120 µM)
[24]
  microsomal CLint: 52 µL/min/mg
[10]
  half-life: 43.2 min
[11]
  IC50: 0.027 µM
[12]
  IC50: 0.8 µM
Rattus norvegicus [25]
  Activity: Active
[15]
  fraction unbound: 0.028
[18]
  bioavailability: 6.3%
Liver
  CL: 28 µL/min/mg
[19]
  IC50: 0.87 µM
[20]
  clearance: 31.7 mL/min/kg
[26]
  microsomal CLint: 79 µL/min/mg
